Measurements reported in patent US20090111691A1, “Fungicides and Bioregulatory Mixtures” (priority 2005, published 2009).

Test system: Puccinia recondita
Experiment: Curative activity against brown rust of wheat (Puccrt K1), potted wheat seedlings cultivar Kanzler
Type: in vivo
Details: efficacy in % of untreated control, sprayed 1 day after inoculation, rated after 7 days, read-out: Observed activity (%)
Method: The active compounds were prepared separately or jointly as a stock solution with 25 mg of active compound which was made up to 10 ml using a mixture of acetone and/or DMSO and the emulsifier Uniperol® EL (wetting agent having emulsifying and dispersing action based on ethoxylated alkylphenols) in a volume ratio of solvent/emulsifier of 99 to 1. The mixture was then made up to 100 ml with water. This stock solution was diluted with the solvent/emulsifier/water mixture described to the concentration of active compounds stated below.
The visually determined percentages of infected leaf areas or the measured elongation were converted into efficacies in % of the untreated control:
The efficacy (E) is calculated as follows using Abbot's formula: […]
The expected efficacies of mixtures of active compounds were determined using Colby's formula (Colby, S. R. “Calculating synergistic and antagonistic responses of herbicide combinations”, Weeds, 15, pp. 20-22, 1967) and compared with the observed efficacies. […]
Leaves of potted wheat seedlings of the cultivar “Kanzler” were inoculated with a spore suspension of brown rust (Puccinia recondita). […] The extent of the rust fungus development on the leaves was then determined. The visually determined values for the percentage of infected leaf area were initially converted into a mean value and then converted into efficacies in % of the untreated control. […]

Compound	inhibition at 250 µg/mL (Conc. 0.25 mg/ml) [%]	inhibition at 60 µg/mL (Conc. 0.06 mg/ml) [%]
Fc1ccc(C2(Cn3cncn3)OC2c2ccccc2Cl)cc1 (centres unmarked) [Epoxiconazole, epoxiconazole]	11	–
CCOC(=O)C1CC(=O)C(=C(O)C2CC2)C(=O)C1 (centres unmarked) [Trinexapac-ethyl, trinexapac-ethyl]	–	0
